Experimental data: patent publication US20140005163A1 (NOVARTIS AG, priority 2010, published 2014)
Converted amounts (≈) assume the structure as drawn.

Assays:
[1] = system: S6 Ribosomal Protein phosphorylation Ser235/236 in TSC1 null mouse embryo fibroblast (MEF) cells; test: Reverse protein array assay, S6 Ribosomal Protein phosphorylation Ser235/236 in TSC1 null MEF cells; assay type: cell-based; conditions: 1 h, pS6 ribosomal protein Ser235/236, 60 minutes incubation, read-out: p-S6 IC50
Method in brief: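 TSC1−/− MEFs, seeded and held ≥20 h at 37 °C/5% CO2, were exposed to 8-step serial compound dilutions (0.02% DMSO final; DMSO vehicle control) for 60 min at 37 °C. Cells were then lysed on ice for 10 min and lysates spotted onto reverse protein array chips.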

mTOR = biological target: T1, mTOR (Homo sapiens, UniProt P42345); test: Biochemical assay for m-TOR by TR-FRET; conditions: 8 μM ATP, 400 nM GFP-4EBP1, 0.5 nM mTOR
T1 construct: purchased Invitrogen Corporation (Carlsbad/CA, USA) PV4753
T1 sequence (P42345 1360-2549 limits assumed): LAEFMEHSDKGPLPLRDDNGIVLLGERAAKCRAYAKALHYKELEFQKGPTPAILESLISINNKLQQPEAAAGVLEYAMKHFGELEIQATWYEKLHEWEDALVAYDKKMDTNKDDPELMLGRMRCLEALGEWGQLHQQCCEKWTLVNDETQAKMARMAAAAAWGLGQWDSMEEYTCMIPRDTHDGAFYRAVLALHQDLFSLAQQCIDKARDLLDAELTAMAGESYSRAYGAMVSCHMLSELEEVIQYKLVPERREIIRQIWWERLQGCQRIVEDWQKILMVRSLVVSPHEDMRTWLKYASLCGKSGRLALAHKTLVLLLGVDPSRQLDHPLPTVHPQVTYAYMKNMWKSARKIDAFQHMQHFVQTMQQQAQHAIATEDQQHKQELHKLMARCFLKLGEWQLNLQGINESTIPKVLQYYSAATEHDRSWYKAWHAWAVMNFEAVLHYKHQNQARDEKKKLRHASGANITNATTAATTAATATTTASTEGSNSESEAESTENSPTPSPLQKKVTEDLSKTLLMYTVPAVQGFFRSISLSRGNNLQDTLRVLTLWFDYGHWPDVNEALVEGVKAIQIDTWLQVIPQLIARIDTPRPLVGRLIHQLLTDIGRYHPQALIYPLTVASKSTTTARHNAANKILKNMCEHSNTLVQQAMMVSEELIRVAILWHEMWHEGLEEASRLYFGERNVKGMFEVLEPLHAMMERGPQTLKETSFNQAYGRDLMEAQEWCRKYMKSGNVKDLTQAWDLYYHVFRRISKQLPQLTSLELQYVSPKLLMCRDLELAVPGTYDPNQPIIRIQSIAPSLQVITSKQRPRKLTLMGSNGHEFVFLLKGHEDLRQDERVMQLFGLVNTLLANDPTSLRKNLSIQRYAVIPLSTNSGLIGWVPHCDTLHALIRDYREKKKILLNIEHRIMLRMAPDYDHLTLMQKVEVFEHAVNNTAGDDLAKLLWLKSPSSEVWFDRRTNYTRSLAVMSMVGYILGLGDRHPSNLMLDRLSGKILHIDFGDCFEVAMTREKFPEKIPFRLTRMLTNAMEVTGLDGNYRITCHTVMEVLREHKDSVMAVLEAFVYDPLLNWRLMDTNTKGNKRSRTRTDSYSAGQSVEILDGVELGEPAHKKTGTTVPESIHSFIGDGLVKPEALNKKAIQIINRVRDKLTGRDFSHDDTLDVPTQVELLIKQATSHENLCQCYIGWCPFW
Method in brief: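 TR-FRET detection of pThr46 on GFP-4EBP1 (400 nM final) using Tb3+-labelled antibody (0.5 nM), added with EDTA to stop reactions. Reactions ran at rt with 0.5 nM mTOR and 8 μM ATP (final) in HEPES pH 7.5 buffer containing 10 mM MnCl2.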

Solubility at pH 6.8 = assay type: physicochemical; conditions: pH 6.8, aqueous buffer, thermodynamic from solid; read-out: solubility
Method in brief: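 Following the procedure of Zhou et al. (2007), compound solubility was determined at pH 6.8.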

PI3K gamma = biological target: T2, PI3K gamma (Homo sapiens, UniProt P48736); test: PI3K gamma kinase assay (Kinase-Glo luminescence); assay type: biochemical
T2 construct: His tag (C); made in house; host or cells: baculovirus (pVL1393); Tn5 or TiniPro insect cells; construct from Roger Williams lab, MRC LMB
T2 sequence (P48736 144-1102 limits assumed): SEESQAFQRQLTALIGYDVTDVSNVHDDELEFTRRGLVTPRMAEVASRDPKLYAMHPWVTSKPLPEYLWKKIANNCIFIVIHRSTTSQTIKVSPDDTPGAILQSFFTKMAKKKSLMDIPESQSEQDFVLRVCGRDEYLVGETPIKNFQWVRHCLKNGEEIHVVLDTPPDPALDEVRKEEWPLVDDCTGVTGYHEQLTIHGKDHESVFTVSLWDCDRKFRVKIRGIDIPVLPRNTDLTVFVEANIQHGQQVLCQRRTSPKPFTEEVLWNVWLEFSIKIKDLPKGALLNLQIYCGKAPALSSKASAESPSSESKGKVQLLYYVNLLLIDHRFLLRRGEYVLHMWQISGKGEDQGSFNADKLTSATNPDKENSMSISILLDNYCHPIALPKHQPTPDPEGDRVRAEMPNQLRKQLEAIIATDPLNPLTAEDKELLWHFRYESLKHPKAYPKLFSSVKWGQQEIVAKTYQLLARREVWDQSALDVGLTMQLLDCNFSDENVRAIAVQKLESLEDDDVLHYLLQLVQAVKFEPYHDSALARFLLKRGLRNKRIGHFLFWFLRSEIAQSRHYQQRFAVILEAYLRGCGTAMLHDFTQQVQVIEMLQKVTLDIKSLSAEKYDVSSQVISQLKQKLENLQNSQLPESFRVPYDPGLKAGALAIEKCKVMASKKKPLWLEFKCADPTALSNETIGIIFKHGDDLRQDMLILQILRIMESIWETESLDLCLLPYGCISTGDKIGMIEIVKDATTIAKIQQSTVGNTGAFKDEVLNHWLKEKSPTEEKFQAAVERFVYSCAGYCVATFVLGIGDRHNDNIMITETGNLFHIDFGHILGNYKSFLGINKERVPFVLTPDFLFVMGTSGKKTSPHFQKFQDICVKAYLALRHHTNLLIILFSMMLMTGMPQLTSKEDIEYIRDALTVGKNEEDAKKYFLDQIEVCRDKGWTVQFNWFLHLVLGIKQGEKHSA
Method in brief: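 PI3Kγ (150 nM) reaction run 120 min at room temperature with phosphatidylinositol substrate (10 μg/mL) and ATP (1 μM) in Tris pH 7.5 buffer containing MgCl2, NaCl, CHAPS and DTT. Remaining ATP detected by Kinase-Glo luminescence; 8 concentrations per compound, IC50 from 4-parameter curve fitting.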

**Q.** What does the source list for COc1ncc(-c2ccc3ncc4c(c3c2)n(-c2cn(C)nc2C)c(=O)n4C)cn1 [Example 17.2, 1-(1,3-Dimethyl-1H-pyrazol-4-yl)-8-(2-methoxy-pyrimidin-5-yl)-3-methyl-1,3-dihydro-imidazo[4,5-c]quinolin-2-one]?
**A.** IC50 [1]: 0.033 µM; IC50 (mTOR): 0.068 µM; solubility (Solubility at pH 6.8): 32 µg/mL (≈ 79.7 µM); IC50 (PI3K gamma): 0.873 µM

**Q.** What does the source list for COCCOc1ccc(-c2ccc3ncc4c(c3c2)n(-c2cn(C)nc2C)c(=O)n4C)cc1OC [Example 30.1, 1-(1,3-Dimethyl-1H-pyrazol-4-yl)-8-[3-methoxy-4-(2-methoxy-ethoxy)-phenyl]-3-methyl-1,3-dihydro-imidazo[4,5-c]quinolin-2-one]?
**A.** IC50 [1]: 0.014 µM; IC50 (mTOR): 0.052 µM; solubility (Solubility at pH 6.8): 4 µg/mL (≈ 8.45 µM); IC50 (PI3K gamma): 0.178 µM

**Q.** With CNC(=O)c1ccc(-c2ccc3ncc4c(c3c2)n(-c2cn(C)nc2C)c(=O)n4C)cc1 [Example 43.1, 4-[1-(1,3-Dimethyl-1H-pyrazol-4-yl)-3-methyl-2-oxo-2,3-dihydro-1H-imidazo[4,5-c]quinolin-8-yl]-N-methyl-benzamide] as the compound, how does the IC50 [1] read?
**A.** Its IC50 is 0.003 µM.

**Q.** And the IC50 (mTOR)?
**A.** Its IC50 is under 0.003 µM.

**Q.** And the solubility (Solubility at pH 6.8)?
**A.** Its solubility is 19 µg/mL (≈ 44.6 µM).

**Q.** What about the IC50 (PI3K gamma) of the same compound?
**A.** The IC50 was 0.15 µM.

**Q.** Which IC50 [1] does the source give for Cc1nn(CC(=O)N(C)C)cc1-n1c(=O)n(C)c2cnc3ccc(-c4ccc(-n5cccn5)cc4)cc3c21 [Example 51.2, N,N-Dimethyl-2-{3-methyl-4-[3-methyl-2-oxo-8-(4-pyrazol-1-yl-phenyl)-2,3-dihydro-imidazo[4,5-c]quinolin-1-yl]-pyrazol-1-yl}-acetamide] here?
**A.** Its IC50 is 0.001 µM.

**Q.** What about the IC50 (mTOR) of the same compound?
**A.** Its IC50 is under 0.003 µM.

**Q.** And the solubility (Solubility at pH 6.8)?
**A.** Its solubility is 4 µg/mL (≈ 7.9 µM).

**Q.** What about the IC50 (PI3K gamma) of the same compound?
**A.** Its IC50 is 0.138 µM.

**Q.** Which IC50 [1] does the source give for CCOc1ncc(-c2ccc3ncc4c(c3c2)n(-c2cn(C)nc2C)c(=O)n4C)cn1 [Example 52, 1-(1,3-Dimethyl-1H-pyrazol-4-yl)-8-(2-ethoxy-pyrimidin-5-yl)-3-methyl-1,3-dihydro-imidazo[4,5-c]quinolin-2-one] here?
**A.** The IC50 was 0.048 µM.

**Q.** What about the IC50 (mTOR) of the same compound?
**A.** The IC50 was 0.074 µM.

**Q.** And the solubility (Solubility at pH 6.8)?
**A.** The solubility was 11 µg/mL (≈ 26.5 µM).

**Q.** And the IC50 (PI3K gamma)?
**A.** Its IC50 is 0.597 µM.

**Q.** Which results are given for CCOc1cncc(-c2ccc3ncc4c(c3c2)n(-c2cn(C)nc2C)c(=O)n4C)c1 [Example 56.1, 1-(1,3-Dimethyl-1H-pyrazol-4-yl)-8-(5-ethoxy-pyridin-3-yl)-3-methyl-1,3-dihydro-imidazo[4,5-c]quinolin-2-one]?
**A.** IC50 [1]: 0.004 µM; IC50 (mTOR): 0.015 µM; solubility (Solubility at pH 6.8): 25 µg/mL (≈ 60.3 µM); IC50 (PI3K gamma): 0.123 µM

**Q.** For CCn1cc(-n2c(=O)n(C)c3cnc4ccc(-c5cncc(OC(C)C)c5)cc4c32)c(C)n1 [Example 58.4, 1-(1-Ethyl-3-methyl-1H-pyrazol-4-yl)-8-(5-isopropoxy-pyridin-3-yl)-3-methyl-1,3-dihydro-imidazo[4,5-c]quinolin-2-one], which IC50 [1] is on record?
**A.** The IC50 was 0.002 µM.

**Q.** What about the IC50 (mTOR) of the same compound?
**A.** Its IC50 is 0.031 µM.

**Q.** What about the solubility (Solubility at pH 6.8) of the same compound?
**A.** The solubility was 27 µg/mL (≈ 61 µM).

**Q.** What about the IC50 (PI3K gamma) of the same compound?
**A.** The IC50 was 0.253 µM.

**Q.** What does the source list for COCCOc1cncc(-c2ccc3ncc4c(c3c2)n(-c2cn(C)nc2C)c(=O)n4C)c1 [Example 59.1, 1-(1,3-Dimethyl-1H-pyrazol-4-yl)-8-[5-(2-methoxy-ethoxy)-pyridin-3-yl]-3-methyl-1,3-dihydro-imidazo[4,5-c]quinolin-2-one]?
**A.** IC50 [1]: 0.006 µM; IC50 (mTOR): 0.096 µM; solubility (Solubility at pH 6.8): > 444 µg/mL; IC50 (PI3K gamma): 0.179 µM

**Q.** Which IC50 [1] does the source give for CCOc1cc(-c2ccc3ncc4c(c3c2)n(-c2cn(C)nc2C)c(=O)n4C)ccn1 [Example 91, 1-(1,3-Dimethyl-1H-pyrazol-4-yl)-8-(2-ethoxy-pyridin-4-yl)-3-methyl-1,3-dihydro-imidazo[4,5-c]quinolin-2-one] here?
**A.** Its IC50 is 0.036 µM.

**Q.** And the IC50 (mTOR)?
**A.** Its IC50 is 0.512 µM.

**Q.** And the solubility (Solubility at pH 6.8)?
**A.** The solubility was 13 µg/mL (≈ 31.4 µM).

**Q.** What about the IC50 (PI3K gamma) of the same compound?
**A.** The IC50 was 0.25 µM.

**Q.** Which results are given for COc1ccc(-c2ccc3ncc4c(c3c2)n(-c2cn(CCO)nc2C)c(=O)n4C)cn1 [Example 103.1, 1-[1-(2-Hydroxy-ethyl)-3-methyl-1H-pyrazol-4-yl]-8-(6-methoxy-pyridin-3-yl)-3-methyl-1,3-dihydro-imidazo[4,5-c]quinolin-2-one]?
**A.** IC50 [1]: 0.013 µM; IC50 (mTOR): 0.021 µM; solubility (Solubility at pH 6.8): 38 µg/mL (≈ 88.3 µM); IC50 (PI3K gamma): 0.191 µM

**Q.** What does the source list for CCn1c(=O)n(-c2cn(C)nc2C)c2c3nc(-c4ccc(OC)c(OC)c4)ccc3ncc21 [Example 251, 8-(3,4-Dimethoxy-phenyl)-1-(1,3-dimethyl-1H-pyrazol-4-yl)-3-ethyl-1,3-dihydro-1,3,5,9-tetraaza-cyclopenta[a]naphthalen-2-one]?
**A.** IC50 [1]: 0.033 µM; IC50 (mTOR): 0.105 µM; solubility (Solubility at pH 6.8): 12 µg/mL (≈ 27 µM); IC50 (PI3K gamma): 0.212 µM

**Q.** For COc1ccc(-c2ccc3ncc4[nH]c(=O)n(-c5cc(C)nn5C)c4c3n2)cc1OC [Example 252, 8-(3,4-Dimethoxy-phenyl)-1-(2,5-dimethyl-2H-pyrazol-3-yl)-1,3-dihydro-1,3,5,9-tetraaza-cyclopenta[a]naphthalen-2-one], which IC50 [1] is on record?
**A.** The IC50 was 0.005 µM.

**Q.** What about the IC50 (mTOR) of the same compound?
**A.** The IC50 was 0.01 µM.

**Q.** And the solubility (Solubility at pH 6.8)?
**A.** The solubility was 5 µg/mL (≈ 12 µM).

**Q.** What about the IC50 (PI3K gamma) of the same compound?
**A.** The IC50 was 0.045 µM.

**Q.** What does the source list for COc1ccc(-c2ccc3ncc4c(c3n2)n(-c2cc(C)nn2C)c(=O)n4C)cc1OC [Example 253, 8-(3,4-Dimethoxy-phenyl)-1-(2,5-dimethyl-2H-pyrazol-3-yl)-3-methyl-1,3-dihydro-1,3,5,9-tetraaza-cyclopenta[a]naphthalen-2-one]?
**A.** IC50 [1]: < 0.005 µM; IC50 (mTOR): 0.003 µM; solubility (Solubility at pH 6.8): 7 µg/mL (≈ 16.3 µM); IC50 (PI3K gamma): 0.088 µM
